The values that follow come from patent US10925876B2, “Methods for using triazolo-pyrazinyl soluble guanylate cyclase activators in fibrotic disorders” (Merck Sharp & Dohme Corp., priority 2016, dated 2021).

Molecules are shown by their SMILES.

The assay deals with T1, sGC α1/β1 heterodimer (Homo sapiens, UniProt Q02108+Q02153).
T1 construct: expressed in transfected cells
T1 sequence (Q02108 1-690): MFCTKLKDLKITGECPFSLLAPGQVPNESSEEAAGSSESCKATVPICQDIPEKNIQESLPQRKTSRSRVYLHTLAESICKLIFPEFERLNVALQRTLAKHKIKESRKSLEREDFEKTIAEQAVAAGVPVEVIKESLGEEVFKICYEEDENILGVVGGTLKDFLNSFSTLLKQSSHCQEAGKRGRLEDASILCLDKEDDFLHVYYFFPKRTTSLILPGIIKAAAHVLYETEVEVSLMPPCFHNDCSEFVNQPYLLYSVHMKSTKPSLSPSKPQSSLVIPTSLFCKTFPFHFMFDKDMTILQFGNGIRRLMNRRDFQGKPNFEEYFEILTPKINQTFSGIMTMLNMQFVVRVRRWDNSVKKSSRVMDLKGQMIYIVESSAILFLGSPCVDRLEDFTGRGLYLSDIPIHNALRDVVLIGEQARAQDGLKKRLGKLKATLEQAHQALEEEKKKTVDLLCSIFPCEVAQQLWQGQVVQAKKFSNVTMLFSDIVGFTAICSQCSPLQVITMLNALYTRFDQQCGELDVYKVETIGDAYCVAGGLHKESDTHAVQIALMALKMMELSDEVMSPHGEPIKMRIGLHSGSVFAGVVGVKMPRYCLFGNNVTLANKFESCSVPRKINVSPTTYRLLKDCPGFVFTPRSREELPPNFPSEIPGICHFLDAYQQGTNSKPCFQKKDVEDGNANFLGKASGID
T1 sequence (Q02153 1-619): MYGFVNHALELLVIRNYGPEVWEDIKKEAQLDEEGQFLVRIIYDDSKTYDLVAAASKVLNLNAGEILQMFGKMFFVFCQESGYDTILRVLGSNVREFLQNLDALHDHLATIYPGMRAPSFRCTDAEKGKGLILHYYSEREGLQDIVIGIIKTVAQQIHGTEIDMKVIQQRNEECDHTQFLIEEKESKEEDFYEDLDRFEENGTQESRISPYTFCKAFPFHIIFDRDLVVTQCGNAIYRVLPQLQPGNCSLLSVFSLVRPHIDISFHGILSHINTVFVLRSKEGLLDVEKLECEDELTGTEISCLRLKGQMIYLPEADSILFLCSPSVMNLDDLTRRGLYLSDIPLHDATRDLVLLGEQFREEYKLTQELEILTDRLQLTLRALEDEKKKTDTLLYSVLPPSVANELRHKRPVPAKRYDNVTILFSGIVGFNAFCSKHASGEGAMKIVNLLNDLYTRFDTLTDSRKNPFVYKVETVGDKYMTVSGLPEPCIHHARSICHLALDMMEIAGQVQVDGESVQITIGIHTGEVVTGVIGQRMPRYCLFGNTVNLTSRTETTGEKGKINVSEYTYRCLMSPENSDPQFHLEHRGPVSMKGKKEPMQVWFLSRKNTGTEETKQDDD
The experiment in a line: Cell-Based sGC Functional Assay (CASA Assay), cGMP generation in CHO-K1/sGC cells.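 Note: reference Compound A is a published heme-dependent sGC activator.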 Particulars: maximum cGMP production of Compound A set to 100% activation, read-out: % Act. (percent activation relative to Compound A). The procedure, abridged:
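CHO-K1 cells stably expressing human sGC α1/β1, 4×10^5/mL in EBSS with 5 mM MgCl2, 10 mM HEPES, 0.05% BSA, 0.5 mM IBMX, 2.5% DMSO; compounds 1 h at 37 °C ± 1 μM DETA-NO. cGMP by HTRF, expressed as % of reference Compound A maximum; IP and max fold induction from 4P fit.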

Take `C[C@@]1(c2ccc(F)cc2)C(=O)Nc2nc(-c3cn4ncnc4c(Cc4cccc(O)c4)n3)nc(N)c21` [Example 113B, (S)-4-amino-5-(4-fluorophenyl)-2-(8-(3-hydroxybenzyl)-[1,2,4]triazolo[1,5-a]pyrazin-6-yl)-5-methyl-5H-pyrrolo[2,3-d]pyrimidin-6(7H)-one]: the Emax came to 171%.
Under `CCCCc1nc(-c2nc(N)c3c(n2)NC(=O)C3(c2ccccn2)C2CC2)cn2ncnc12` (centres unmarked) [Example 116A, 4-amino-2-(8-butyl-[1,2,4]triazolo[1,5-a]pyrazin-6-yl)-5-cyclopropyl-5-(pyridin-2-yl)-5H-pyrrolo[2,3-d]pyrimidin-6(7H)-one] stands 85%; under `N#Cc1ccc(C2(C3CC3)C(=O)Nc3nc(-c4cn5ncnc5c(CCCC(F)(F)F)n4)nc(N)c32)nc1` (centres unmarked) [Example 117A, 6-(4-Amino-5-cyclopropyl-6-oxo-2-(8-(4,4,4-trifluorobutyl)-[1,2,4]triazolo[1,5-a]pyrazin-6-yl)-6,7-dihydro-5H-pyrrolo[2,3-d]pyrimidin-5-yl)nicotinonitrile], 140%; under `N#Cc1ccc(C2(C3CC3)C(=O)Nc3nc(-c4cn5ncnc5c(CCC(F)(F)C(F)(F)F)n4)nc(N)c32)nc1` (centres unmarked) [Example 118A, 6-(4-Amino-5-cyclopropyl-6-oxo-2-(8-(3,3,4,4,4-pentafluorobutyl)-[1,2,4]triazolo[1,5-a]pyrazin-6-yl)-6,7-dihydro-5H-pyrrolo[2,3-d]pyrimidin-5-yl)nicotinonitrile], 72%.
To `O=C1Nc2nc(-c3cn4ncnc4c(CCC(F)(F)C(F)(F)F)n3)nc(O)c2C1(c1ccc(F)c(F)c1)C1CC1` (centres unmarked) [Example 123A, 5-cyclopropyl-5-(3,4-difluorophenyl)-4-hydroxy-2-(8-(3,3,4,4,4-pentafluorobutyl)-[1,2,4]triazolo[1,5-a]pyrazin-6-yl)-5H-pyrrolo[2,3-b]pyrimidin-6(7H)-one] belongs 78%; to `O=C1Nc2nc(-c3cn4ncnc4c(CCC(F)(F)C(F)(F)F)n3)nc(O)c2C1(c1cncc(F)c1)C1CC1` (centres unmarked) [Example 124B, 5-cyclopropyl-5-(5-fluoropyridin-3-yl)-4-hydroxy-2-(8-(3,3,4,4,4-pentafluorobutyl)-[1,2,4]triazolo[1,5-a]pyrazin-6-yl)-5H-pyrrolo[2,3-d]pyrimidin-6(7H)-one], 88%; to `CC1(c2ccc(Cl)cc2)C(=O)Nc2nc(-c3cn4ncnc4c(CCC(F)(F)C(F)(F)F)n3)nc(O)c21` (centres unmarked) [Example 126A, 5-(4-chlorophenyl)-4-hydroxy-5-methyl-2-(8-(3,3,4,4,4-pentafluorobutyl)-[1,2,4]triazolo[1,5-a]pyrazin-6-yl)-5H-pyrrolo[2,3-d]pyrimidin-6(7H)-one], 102%.
To `CC1(c2ccccn2)C(=O)Nc2nc(-c3cn4ncnc4c(CCC(F)(F)C(F)(F)F)n3)nc(O)c21` (centres unmarked) [Example 127B, 4-hydroxy-5-methyl-2-(8-(3,3,4,4,4-pentafluorobutyl)-[1,2,4]triazolo[1,5-a]pyrazin-6-yl)-5-(pyridin-2-yl)-5H-pyrrolo[2,3-d]pyrimidin-6(7H)-one] belongs 129%; to `CC1(c2ccccc2)C(=O)Nc2nc(-c3cn4ncnc4c(CCC(F)(F)C(F)(F)F)n3)nc(O)c21` (centres unmarked) [Example 128B, 4-hydroxy-5-methyl-2-(8-(3,3,4,4,4-pentafluorobutyl)-[1,2,4]triazolo[1,5-a]pyrazin-6-yl)-5-phenyl-5H-pyrrolo[2,3-d]pyrimidin-6(7H)-one], 106%; to `CC1(c2cccc(F)c2)C(=O)Nc2nc(-c3cn4ncnc4c(CCC(F)(F)C(F)(F)F)n3)nc(O)c21` (centres unmarked) [Example 129B, 5-(3-fluorophenyl)-4-hydroxy-5-methyl-2-(8-(3,3,4,4,4-pentafluorobutyl)-[1,2,4]triazolo[1,5-a]pyrazin-6-yl)-5,7-dihydro-6H-pyrrolo[2,3-d]pyrimidin-6-one], 66%.
As to `Cc1ccc(C2(C)C(=O)Nc3nc(-c4cn5ncnc5c(CCC(F)(F)C(F)(F)F)n4)nc(O)c32)nc1` (centres unmarked) [Example 130B, 4-hydroxy-5-methyl-5-(5-methylpyridin-2-yl)-2-(8-(3,3,4,4,4-pentafluorobutyl)-[1,2,4]triazolo[1,5-a]pyrazin-6-yl)-5H-pyrrolo[2,3-d]pyrimidin-6(7H)-one], the Emax turned out to be 109%.
To `CC1(c2ccc(C#N)cn2)C(=O)Nc2nc(-c3cn4ncnc4c(CCC(F)(F)C(F)(F)F)n3)nc(O)c21` (centres unmarked) [Example 131A, 6-(4-hydroxy-5-methyl-6-oxo-2-(8-(3,3,4,4,4-pentafluorobutyl)-[1,2,4]triazolo[1,5-a]pyrazin-6-yl)-6,7-dihydro-5H-pyrrolo[2,3-d]pyrimidin-5-yl)nicotinonitrile] belongs 99%; to `Cc1nc2c(CCC(F)(F)C(F)(F)F)nc(-c3nc(O)c4c(n3)NC(=O)[C@@]4(C)c3ccc(F)cc3)cn2n1` [Example 133B, (S)-5-(4-fluorophenyl)-4-hydroxy-5-methyl-2-(2-methyl-8-(3,3,4,4,4-pentafluorobutyl)-[1,2,4]triazolo[1,5-a]pyrazin-6-yl)-5H-pyrrolo[2,3-d]pyrimidin-6(7H)-one], 87%; to `CC1(c2ccc(C(F)(F)F)cc2)C(=O)Nc2nc(-c3cn4ncnc4c(CCCC(F)(F)F)n3)nc(O)c21` (centres unmarked) [Example 137B, 4-hydroxy-5-methyl-2-(8-(4,4,4-trifluorobutyl)-[1,2,4]triazolo[1,5-a]pyrazin-6-yl)-5-(4-(trifluoromethyl)phenyl)-5H-pyrrolo[2,3-d]pyrimidin-6(7H)-one], 102%.
To `O=C1Nc2nc(-c3cn4ncnc4c(CCCC(F)(F)F)n3)nc(O)c2C1(c1ccc(F)cc1)C1CC1` (centres unmarked) [Example 139B, 5-cyclopropyl-5-(4-fluorophenyl)-4-hydroxy-2-(8-(4,4,4-trifluorobutyl)-[1,2,4]triazolo[1,5-a]pyrazin-6-yl)-5H-pyrrolo[2,3-d]pyrimidin-6(7H)-one] belongs 169%; to `O=C1Nc2nc(-c3cn4ncnc4c(CCCC(F)(F)F)n3)nc(O)c2C1(c1ccc(C(F)(F)F)cc1)C1CC1` (centres unmarked) [Example 144A, 5-cyclopropyl-4-hydroxy-2-(8-(4,4,4-trifluorobutyl)-[1,2,4]triazolo[1,5-a]pyrazin-6-yl)-5-(4-(trifluoromethyl)phenyl)-5H-pyrrolo[2,3-d]pyrimidin-6(7H)-one], 87%.
Under `CC1(c2ccccn2)C(=O)Nc2nc(-c3cn4ncnc4c(CCCC(F)(F)F)n3)nc(O)c21` (centres unmarked) [Example 145B, 4-hydroxy-5-methyl-5-(pyridin-2-yl)-2-(8-(4,4,4-trifluorobutyl)-[1,2,4]triazolo[1,5-a]pyrazin-6-yl)-5H-pyrrolo[2,3-d]pyrimidin-6(7H)-one] stands 64%; under `CC1(c2ccc(F)c(Cl)c2)C(=O)Nc2nc(-c3cn4ncnc4c(CCCC(F)(F)F)n3)nc(O)c21` (centres unmarked) [Example 147B, 5-(3-chloro-4-fluorophenyl)-4-hydroxy-5-methyl-2-(8-(4,4,4-trifluorobutyl)-[1,2,4]triazolo[1,5-a]pyrazin-6-yl)-5,7-dihydro-6H-pyrrolo[2,3-d]pyrimidin-6-one], 94%; under `COc1ccc(C2(C)C(=O)Nc3nc(-c4cn5ncnc5c(CCCC(F)(F)F)n4)nc(O)c32)nc1` (centres unmarked) [Example 148A, 4-hydroxy-5-(5-methoxypyridin-2-yl)-5-methyl-2-(8-(4,4,4-trifluorobutyl)-[1,2,4]triazolo[1,5-a]pyrazin-6-yl)-5H-pyrrolo[2,3-d]pyrimidin-6(7H)-one], 96%.
In the case of `Cc1ccc(C2(C)C(=O)Nc3nc(-c4cn5ncnc5c(CCCC(F)(F)F)n4)nc(O)c32)nc1` (centres unmarked) [Example 149B, 4-hydroxy-5-methyl-5-(5-methylpyridin-2-yl)-2-(8-(4,4,4-trifluorobutyl)-[1,2,4]triazolo[1,5-a]pyrazin-6-yl)-5H-pyrrolo[2,3-d]pyrimidin-6(7H)-one], the Emax was determined as 63%.
